Test [1] deals with MC38-CLDN18.2 syngeneic tumor. Put plainly: MC38-CLDN18.2 syngeneic tumor model, 18B10 and Atezolizumab. The format is in vivo, C57BL/6 mice. An excerpt: MC38-CLDN18.2 was purchase from Kyinno (Cat #, KC-1449), which was stable transfected with human CLDN18.2 expression. The tumor cells were routinely sub-culture twice weekly by trypsin-EDTA treatment (Hyclone). The cells growing in an exponential growth phase were harvested and counted for tumor inoculation. Female SPF grade C57BL/6 mice were inoculated with 2×10^6 MC38-CLDN18.2 cells. Animal were selected and randomized to 4 groups (n=6) when tumors grow to 70-100 mm^3. Animals were then treated with 13 mg/kg Isotype control, 10 mg/kg anti-CLDN18.2 antibody 18B10, 3 mg/kg anti-PD-L1 antibody Atezolizumab, 10 mg/kg anti-CLDN18.2 antibody 18B10 and 3 mg/kg anti-PD-L1 antibody Atezolizumab twice a week for 4 weeks by i.p. injection. Tumor size was measured twice a week in two dimensions using a caliper (INSIZE) and the volume was expressed in mm^3 using the formula: V=0.5 a×b^2 where a and b are the long and short diameters of the tumor, respectively. Results were analyzed using Prism GraphPad and expressed as mean±S.E.M. Comparisons between two groups were made by T-test, and the difference is considered significant if p is *<0.05 and **<0.01.

Test [2] has as its system CT26-CLDN18.2 syngeneic tumor. The test can be described thus: CT26-CLDN18.2 syngeneic tumor model, 18B10 and Atezolizumab. The format is in vivo, BALB/c mice. An excerpt: CT26 is synergic mouse tumor model. CT26-CLDN18.2 was purchased from Kyinno (Cat #, KC-1195), which was stalely transfected with human CLDN18.2 expression. The tumor cells were routinely sub-cultured twice weekly by trypsin-EDTA treatment (Hyclone). The cells growing in an exponential growth phase were harvested and counted for tumor inoculation. Female SPF grade BALB/c mice were inoculated with 2×10^6 CT26-CLDN18.2 cells. Animal were selected and randomized to 4 groups (n=8) when tumors grow to 80-120 mm^3. Animals were then treated with either 10 mg/kg Isotype control, 10 mg/kg anti-CLDN18.2 antibody 18B10, 3 mg/kg anti-PD-L1 antibody Atezolizumab, or 10 mg/kg anti-CLDN18.2 antibody 18B10 and 3 mg/kg anti-PD-L1 antibody Atezolizumab twice a week for 3 weeks by i.p. injection. Tumor size was measured twice a week in two dimensions using a caliper (INSIZE) and the volume was expressed in mm^3 using the formula: V=0.5 a×b^2 where a and b are the long and short diameters of the tumor, respectively. Results were analyzed using Prism GraphPad and expressed as mean±S.E.M. Comparisons between two groups were made by T-test, and the difference is considered significant if p is *<0.05 and **<0.01.

In test [3] the test system is CLDN18.2-expressing gastric tumor cell lines NUGC-4, KATOIII and SNU-620. The test can be described thus: Upregulation of PD-L1 expression on tumor cells by supernatant of target cell/PBMC co-culture, flow cytometry. The format is cell-based. The note with it: supernatant of target cell + human PBMC (E/T 40:1) with 30 μg/ml 18B10 (S3), or of target cell with 5 ng/ml IFN-γ (S4), 72 h. How it is done:
In this assay, three different CLDN18.2-expressing gastric tumor cell lines, NUGC-4 (JCRB, Cat #JCRBB0834), KATOIII (ATCC, Cat #HTB-103) and SNU-620 (Cobioer, Cat #CBP60508), were used as target cell and added to the cell culture plate. No antibody, 30 μg/ml of anti-CLDN18.2 antibody 18B10, 30 μg/ml of isotype control hIgG1 or 5 ng/ml IFN-γ were added into the corresponding wells with the target cell. After the plate was co-cultured at 37° C. for 30 mins, human PBMC as the effector cell was added with a E/T ratio of 40:1. The plate was incubated at 37° C. for 72 hours. At the end of incubation, 100 μl of cell culture supernatant of each well was transferred to another cell culture plate with the same target cell planted. After the second plate was incubated at 37° C. for 72 hours, the target cells were collected and analyzed for PD-L1 expression by flowcytometry using mouse anti-human PD-L1 antibody (BD Pharmingen, Cat #557924). S1 stood for the supernatant of the target cell alone; S2 stood for the supernatant of the target cell and human PBMC with isotype control hIgG1; S3 stood for the supernatant of the target cell and human PBMC with anti-CLDN18.2 antibody 18B10; S4 stood for the supernatant of the target cell with IFN-γ.
On the technique in general: In flow cytometry, cells or beads pass a laser one at a time.

Where [4] appears, read: 18B10 10 mg/kg, Atezolizumab 3 mg/kg.

Broadly, the TGI is how far tumour growth fell short of that in controls.

Consider Atezolizumab [reference compound], for which the “antitumor activity compared with isotype control” value in test [1] (setting [4]) and in test [2] (setting [4]) was “better antitumor activity compared with treatment with isotype control” each time. Moreover, the TGI in test [1] (Day 51, 18B10 10 mg/kg, Atezolizumab 3 mg/kg, i.p. twice a week for 4 weeks) is given as 71.14%; in test [2] (Day 33, 18B10 10 mg/kg, Atezolizumab 3 mg/kg, i.p. twice a week for 3 weeks), 71.16%. Further, the Tumor size in test [1] (Day 51, 18B10 10 mg/kg, Atezolizumab 3 mg/kg, i.p. twice a week for 4 weeks, mean ± S.E.M.) is 1154.61 ± 526.35 mm^3; in test [2] (Day 33, 18B10 10 mg/kg, Atezolizumab 3 mg/kg, i.p. twice a week for 3 weeks, mean ± S.E.M.), 1350.18 ± 366.69 mm^3. The CR in test [1] (Day 51, animals per group) was 0/6; in test [2] (Day 33, animals per group), 2/8.
“IFN-γ: IFN-γ, 5 ng/ml added to target cells as comparison (S4) [reference compound]”: the “PD-L1 expression of target cells compared to S1 group (target cell alone)” value in test [3] is “increased PD-L1 expression”.

Source of the values: patent US20250326834A1, “COMBINATION THERAPY OF CLAUDIN 18.2 ANTAGONIST AND PD-1/PD-L1 AXIS INHIBITOR” (SUZHOU TRANSCENTA THERAPEUTICS CO., LTD., priority 2021, published 2025).
